# Experimental data published in PubChem BioAssay (NCI).
# Where “and” joins values, the source holds several entries; their conditions need not be identical. Equal entries are not always repeated.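 The compound was tested at five concentrations on cells cultured in 96-well plates, with a 48-hour exposure period. At the GI50, growth is halved. TGI is the concentration that stops growth completely.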
# Columns and labels:
# Assay in all cases: growth of human tumour cells (NCI), 48 h
# HL-60(TB) leukemia = tested on: HL-60(TB) leukemia
# HT29 colon = tested on: HT29 colon
# MDA-MB-231 breast = tested on: MDA-MB-231 breast
# MOLT-4 leukemia = tested on: MOLT-4 leukemia
# OVCAR-3 ovarian = tested on: OVCAR-3 ovarian
# OVCAR-8 ovarian = tested on: OVCAR-8 ovarian
# SK-OV-3 ovarian = tested on: SK-OV-3 ovarian
# SNB-75 CNS = tested on: SNB-75 CNS
# T-47D breast = tested on: T-47D breast
# U251 CNS = tested on: U251 CNS
SMILES,TGI (HL-60(TB) leukemia),TGI (HT29 colon) [µM],TGI (MDA-MB-231 breast) [µM],TGI (MOLT-4 leukemia) [µM],TGI (OVCAR-3 ovarian) [µM],TGI (OVCAR-8 ovarian) [µM],TGI (SK-OV-3 ovarian) [µM],TGI (SNB-75 CNS),TGI (T-47D breast) [µM],TGI (U251 CNS) [µM],GI50 (HL-60(TB) leukemia),GI50 (HT29 colon) [µM],GI50 (MDA-MB-231 breast),GI50 (MOLT-4 leukemia),GI50 (OVCAR-3 ovarian),GI50 (OVCAR-8 ovarian),GI50 (SK-OV-3 ovarian) [µM],GI50 (SNB-75 CNS) [µM],GI50 (T-47D breast) [µM],GI50 (U251 CNS)
CN(CCC(=O)O)S(=O)(=O)c1ccccc1,> 100 µM,> 100,> 100,> 100,> 100,> 100,> 100,> 100 µM,> 100,> 100,,,,,,,,,,
CO[C@H]1CC[C@@]2(C)C(=CC[C@H]3[C@@H]4C[C@H](O)C[C@@]4(C)CC[C@@H]32)C1,66.7 µM,12.4,24.7,30.6,5.63,19.2,49,23 µM,31.8,15,3.69 µM,3.59,4.97 µM,4.92 µM,2.47 µM,5.14 µM,4.46,3.41,8.33,3.54 µM
O=C(O)c1cccc(CC(Br)C(=O)O)c1 (stereo not drawn),> 100 µM,> 100,> 100,> 100,> 100,> 100,> 100,> 100 µM,> 100,> 100,,,,,,,,,,
CN(C)CC1CCn2c(c(C3=C(c4cn(C)c5ccccc45)C(=O)NC3=O)c3ccccc32)C1 (stereo not drawn),11.2 µM,7.83,7.56,13.9,8.15,9.87,10.5,5.28 µM,10.7,7.64,5.87 µM,3.16,3.42 µM,4.74 µM,3.91 µM,4.62 µM,4.62,0.772,5.1,3.95 µM
Cc1cccc(N=C2c3cc([N+](=O)[O-])ccc3-c3c2cc([N+](=O)[O-])cc3[N+](=O)[O-])c1,13.1 µM,27.6,5,> 100,,94.1,> 100,42.4 µM,4.78,7.41,3.35 µM,4.11,2.43 µM,3.64 µM,2.95 µM,5.88 µM,> 100,4.59,1.99,2.57 µM
COc1ccc2c(c1)Cc1c-2c(NN)nc2ccccc12,> 100 µM,> 100,> 100,> 100,38.4,> 100,77.6,> 100 µM,> 100,68.7,27.9 µM,31.5,36 µM,27.3 µM,16.5 µM,23.8 µM,16.9,42.8,26.5,21.5 µM
O=C1/C(=C/c2ccc(Cl)cc2)CN(C(=O)C(Cl)Cl)C/C1=C\c1ccc(Cl)cc1,,1.43,0.961,> 28.1,0.407,1.44,1.74,0.509 µM,1.62,0.186,0.291 µM,0.0714,0.27 µM,0.273 µM,0.151 µM,0.22 µM,0.531,0.161,0.297,0.052 µM
COc1cc(-c2nc3ccccc3s2)ccc1OCc1nc2n(n1)S(=O)(=O)c1ccccc1N2C,> 100 µM,> 100,> 100,> 100,> 100,> 100,> 100,> 100 µM,> 100,> 100,> 100 µM,> 100,> 100 µM,> 100 µM,62.4 µM,> 100 µM,> 100,99.6,> 100,> 100 µM
Cn1cnc2c(NCc3ccccc3)nc(NCCO)nc21,> 73 µM and 220 µM,336,479,356,> 406,391,> 460,70.8 µM and 150 µM,> 408,> 500,73.2 µM,83.6,116 µM,103 µM,33 µM and 115 µM,90.5 µM,241,64.7,206,133 µM
Nc1nccc(Nc2ccc(S(N)(=O)=O)cc2)n1,> 100 µM,> 100,> 100,> 100,> 100,> 100,> 100,> 100 µM,> 100,> 100,,,,,,,,,,
O=C(Nc1ccc(Br)c(Cl)c1)c1cc(F)ccc1O,2.83 µM,8.35,2.61,2.81,> 50,> 30.5,3.79,4.53 µM,13.4,> 50,0.97 µM,1.71,0.76 µM,0.943 µM,0.481 µM,1.21 µM,0.633,0.591,0.638,0.768 µM
C=C[C@]1(C)C=C2C(=O)[C@@]3(O)OC(=O)[C@@]4(CCCC(C)(C)[C@H]34)[C@@]2(O)CC1,4.43 µM,6.86,3.43,7.53,2.52,5.63,17,2.45 µM,3.49,5.68,1.22 µM,2.12,1.46 µM,1.74 µM,1.08 µM,1.69 µM,4.65,1.09,1.09,2.21 µM
C/C(=C\c1ccn(-c2ccc(N)cc2)n1)[C@@H]1C[C@@H]2O[C@]2(C)CCC[C@H](C)[C@H](O)[C@@H](C)C(=O)C(C)(C)[C@@H](O)CC(=O)O1,> 50 µM,> 50,> 50,> 50,1.6,> 50,> 50,0.233 µM,> 50,> 50,0.0437 µM,0.0187,0.252 µM,0.0486 µM,0.0175 µM,0.0481 µM,0.226,0.00754,0.028,0.0321 µM
CCCC(=O)NNc1[nH]c(-c2ccc(OC)cc2)cc1C(=O)OCC,93.2 µM,34.3,30.2,> 100,31.1,48.3,> 100,29.4 µM,48.6,> 100,3.1 µM,17.4,16.6 µM,6.52 µM,15.5 µM,17.8 µM,> 100,15.4,15.3,29.5 µM
Cc1ccc2sc3c(NCCCNCCO)nc4ccccc4c3c(=O)c2c1,3.58 µM,3.36,3.04,3.55,3.26,3.61,3.02,2.5 µM,3.43,3.18,1.86 µM,1.67,1.56 µM,1.81 µM,1.75 µM,1.74 µM,1.45,1.2,1.59,1.6 µM
Cc1ccc(NC(=O)c2ccnc(N3CCCC3)c2)cc1-c1ccc(C(=O)NCC2CC2)cc1,> 25 µM,> 25,> 25,> 25,> 25,> 25,> 25,> 25 µM,> 25,> 25,> 25 µM,> 25,10 µM,> 25 µM,> 25 µM,> 25 µM,> 25,> 21.7,> 13.5,> 25 µM
COc1cnc2c(c1)C(=O)c1c-2n(CCCN2CCN(C)CC2)c(=O)c2cc(Cl)ccc12,42.4 µM,> 100,23.2,5.33,29.3,> 100,36.4,17.6 µM,98.7,49.6,18 µM,1.37,10.7 µM,0.345 µM,15.1 µM,3.09 µM,10.1,0.932,22.8,7.24 µM
Cc1cc(C)nc(SC2=C(Nc3cccc(Cl)c3)C(=O)N(Cc3ccccc3)C2=O)n1,> 170 µM,> 170,> 170,> 170,> 170,> 170,> 170,> 170 µM,> 170,> 170,> 170 µM,> 170,> 170 µM,> 170 µM,> 170 µM,> 170 µM,> 170,> 170,> 170,> 170 µM
C/C(=C\c1c[nH]c2ccccc12)[N+](=O)[O-],6.46 µM,12.9,24.5,5.83,24.8,17.9,23.7,6.93 µM,22.2,7.04,2.3 µM,3.02,11.4 µM,2.19 µM,8.57 µM,4.18 µM,11.4,1.89,4.27,2.14 µM
COc1cccc2c1c1nc3cc(C)c(C)cc3nc1n2CCN(C)C,6.57 µM,10.7,9.52,,,13.3,12.2,5.56 µM,13.6,11.7,2.09 µM,1.68,1.87 µM,0.498 µM,2.22 µM,0.798 µM,2.02,1.1,2.76,2.21 µM
CC[C@H](C)C(=O)O[C@H]1CCC=C2C=C[C@H](C)C(CCC3C[C@@H](O)CC(=O)O3)[C@H]21 (stereo partly drawn),52.9 µM,> 100,12.5,> 100,> 100,> 100,> 100,7.85 µM,> 100,> 100,11.7 µM,29,0.455 µM,,,3.78 µM,,1.33,,1.82 µM
Cn1cc(C2=C(c3c4n(c5ccccc35)CCC(CN)CC4)C(=O)NC2=O)c2ccccc21 (stereo not drawn),11.5 µM,9.29,7.13,13.3,8.75,9.8,11.6,4.9 µM,9.87,7.21,5.22 µM,2.88,3.25 µM,5.27 µM,4.31 µM,4.82 µM,4.99,1.09,4.52,3.74 µM
COC(=O)Nc1nc2ccc(Oc3ccc(NC(=O)Nc4cccc(Cl)c4)cc3)cc2[nH]1,2.92 µM,3.48,19.3,18.8,2.23,> 17.8,4.62,8.36 µM,5.65,5.68,0.859 µM,0.682,3.31 µM,2.35 µM,0.768 µM,2.84 µM,1.03,0.689,1.02,1.25 µM
COC(=O)[C@@H](C)C[C@H](Cc1ccccc1)NC(=O)c1csc([C@@H](C[C@H](C(C)C)N(C)C(=O)[C@@H](NC(=O)[C@H]2CCCCN2C)C(C)C)OC(C)=O)n1,0.000627 µM and < 0.0025 µM,> 25,0.0116,> 25,,> 25,> 25,> 25 µM,> 25,> 25,0.000187 µM and < 0.0025 µM,,0.000506 µM and 0.0025 µM,0.0005 µM and 0.0025 µM,< 0.0001 µM,0.000519 µM and 0.0025 µM,,,> 25,0.000396 µM and 0.0025 µM
O=C(/C=C\Sc1nccc(C(F)(F)F)n1)c1ccc(Br)cc1,20.8 µM,41.6,44.4,16.2,30.2,> 100,> 100,> 100 µM,38.5,72.8,0.84 µM,19.6,19.1 µM,4.44 µM,14.9 µM,45.9 µM,> 100,28.9,11.2,25 µM
